Measured values published in patent publication US20250179047A1, “5-[7-(3,4-DIHYDRO-1H-ISOQUINOLINE-2-CARBONYL)-1,2,3,4 TETRAHYDROISOQUINOLIN-6-YL]-1H-PYRROLE-3-CARBOXAMIDE DERIVATIVES, PHARMACEUTICAL COMPOSITIONS CONTAINING THEM AND THEIR USES AS PRO-APOPTOTIC AGENTS” (LES LABORATOIRES SERVIER, priority 2022, published 2025).

Assays:
BCL2 D103Y = BCL2 D103Y (Homo sapiens, UniProt P10415, D103Y); assay: TR-FRET competitive binding assay, BCL2 D103Y; details: Ki determined from IC50, read-out: TR_FRET EKI_Bcl2 D103Y
Procedure, shortened: (§1)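 Competitive TR-FRET displacement of fluorescein-PUMA peptide (2 or 20 nM) from 0.5 nM terbium-labelled N-terminal Halo-fusion BCL2 (1-207, wild type or mutant) or BCLXL (2-196), expressed in E. coli. Buffer 50 mM Hepes pH 7.5, 150 mM NaCl, 5% DMSO; 2 h at 23°C. 520/495 nm ratio fitted over 11 points for IC50, converted to Ki.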

BCLXL WT = BCLXL WT (Homo sapiens (Human), UniProt Q07817); assay: TR-FRET competitive binding assay, BCLXL WT; details: for Ki: BCLXL WT, Ki determined from IC50, read-out: TR_FRET EKI BclxL; for TR_FRET EKI BCLxL/WT selectivty ratio: ratio Ki BCLxL / Ki BCL2 WT
Sequence of BCLXL WT (Q07817 other isoform, or with tags, fused parts or gaps): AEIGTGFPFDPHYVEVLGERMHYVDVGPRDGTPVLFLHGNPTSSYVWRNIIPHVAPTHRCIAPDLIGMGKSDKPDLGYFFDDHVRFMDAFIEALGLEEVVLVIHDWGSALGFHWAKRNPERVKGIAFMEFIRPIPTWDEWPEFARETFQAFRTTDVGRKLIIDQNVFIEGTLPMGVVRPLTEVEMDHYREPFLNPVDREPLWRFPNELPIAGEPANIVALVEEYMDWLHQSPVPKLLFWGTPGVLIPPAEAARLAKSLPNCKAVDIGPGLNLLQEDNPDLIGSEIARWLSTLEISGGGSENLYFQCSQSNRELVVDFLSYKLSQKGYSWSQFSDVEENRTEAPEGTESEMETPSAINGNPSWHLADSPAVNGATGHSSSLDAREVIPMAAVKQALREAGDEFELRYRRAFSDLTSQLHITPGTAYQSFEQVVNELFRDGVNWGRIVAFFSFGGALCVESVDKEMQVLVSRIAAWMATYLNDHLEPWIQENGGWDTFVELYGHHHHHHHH
Procedure, shortened: as §1

KMS-12-PE Bcl-2 G101V = assay: In vitro cytotoxicity CellTiter-Glo 48 h, KMS-12-PE Bcl-2 G101V; type: cell-based; details: for Ratio (G101V/WT): C50 KMS-12-PE Bcl-2 G101V over C50 KMS-12-PE Bcl-2 WT; for IC50: CellTiter-Glo, 48 h, C50 = concentration needed to reach 50% of the cellular viability
Procedure, shortened: (§2)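 Transduce KMS-12-PE with Bcl-2 WT or G101V lentivirus, then FACS-sort RFP-positive cells. Add compounds in an 11-point dilution series and incubate 48 h at 37 °C. Measure ATP-based luminescence with CellTiter-Glo and derive C50 (50% viability).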

KMS-12-PE Bcl-2 WT = assay: In vitro cytotoxicity CellTiter-Glo 48 h, KMS-12-PE Bcl-2 WT; type: cell-based; details: C50 = concentration needed to reach 50% of the cellular viability
Procedure, shortened: as §2

BCL2 D111A = BCL2 D111A (Homo sapiens, UniProt P10415, D111A); assay: TR-FRET competitive binding assay, BCL2 D111A; details: Ki determined from IC50, read-out: TR_FRET EKI_Bcl2 D111A
Procedure, shortened: as §1

CYP3A4 = CYP3A4 (Homo sapiens (Human), UniProt P08684); assay: CYP3A4 inhibition determination in hepatic human microsomes; type: in vitro ADME; details: LC/MS-MS of specific metabolite
Sequence of CYP3A4 (P08684 whole entry): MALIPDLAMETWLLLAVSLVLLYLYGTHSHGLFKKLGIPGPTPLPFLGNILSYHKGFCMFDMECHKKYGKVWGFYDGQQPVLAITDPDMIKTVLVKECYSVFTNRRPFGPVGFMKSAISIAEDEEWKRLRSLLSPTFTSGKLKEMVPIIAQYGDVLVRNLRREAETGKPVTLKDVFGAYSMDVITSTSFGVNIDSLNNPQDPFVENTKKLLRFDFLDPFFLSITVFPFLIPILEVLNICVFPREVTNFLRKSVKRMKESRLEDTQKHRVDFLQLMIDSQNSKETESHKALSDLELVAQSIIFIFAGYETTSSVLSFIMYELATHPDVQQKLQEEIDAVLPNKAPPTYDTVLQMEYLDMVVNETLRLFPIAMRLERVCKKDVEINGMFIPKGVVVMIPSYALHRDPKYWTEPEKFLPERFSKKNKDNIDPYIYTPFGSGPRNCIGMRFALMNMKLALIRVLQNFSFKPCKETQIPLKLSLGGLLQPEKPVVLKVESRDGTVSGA
Protocol: The inhibitory potential was determined on CYP3 Å4 enzyme using hepatic human microsomes. A range of concentrations (adapted based on the solubility) of the tested compound were incubated in presence of a substrate having a specific metabolite of CYP3 Å4 enzyme.
Then, the formation of the metabolite was quantified using LC/MS-MS analysis and a curve corresponding to the concentration of the metabolite in function of the concentration of the test compound allowed to the calculation of the IC50 value.

BCL2 G101V [1] = molecular target: BCL2 G101V (Homo sapiens, UniProt P10415, G101V); assay: TR-FRET competitive binding assay, BCL2 G101V; details: BCL2 G101V; Ki determined from IC50; read-out: TR_FRET EKI_Bcl2 G101V
Procedure, shortened: as §1

BCL2 G101V [2] = assay: TR-FRET competitive binding assay, BCL2 G101V; set-up: species or system human; details: ratio Ki BCL2 G101V / Ki BCL2 WT
Procedure, shortened: as §1

BCL2 WT = BCL2 WT (Homo sapiens (Human), UniProt P10415); assay: TR-FRET competitive binding assay, BCL2 WT; details: Ki determined from IC50, read-out: TR_FRET EKI_Bcl2 WT
Procedure, shortened: as §1

BCL2 F104I = BCL2 F104I (Homo sapiens, UniProt P10415, F104I); assay: TR-FRET competitive binding assay, BCL2 F104I; details: Ki determined from IC50, read-out: TR_FRET EKI_Bcl2 F104I
Procedure, shortened: as §1

KMS12PE Bcl2 D103E = assay: In vitro cytotoxicity CellTiterGlo 72 h, KMS12PE Bcl2 D103E; type: cell-based; details: Homo sapiens, KMS-12-PE, read-out: C50 nM, KMS12PE Bcl2 D103E
Protocol: (§3) KMS-12-PE (ACC 606) were purchased from the Leibniz-Institute DSMZ (Braunschweig, Germany) and were grown at 37° C. in a humidified atmosphere with 5% CO2 in media recommended by the suppliers. Lentiviral particles containing Bcl-2 wild type (also named “Bcl2 WT”), Bcl-2 mutated on G101V (also named “Bcl2 G101V”), Bcl-2 mutated on D103Y (also named “Bcl2 D103Y”), Bcl-2 mutated on D103V (also named “Bcl2 D103V”), Bcl-2 mutated on D103E (also named “Bcl2 D103E”), Bcl-2 mutated on F104I (also named “Bcl2 F104I”), Bcl-2 mutated on F104L (also named “Bcl2 F104L”), Bcl-2 mutated on D111A (also named “Bcl2 D111A”), Bcl-2 mutated on A113G (also named “Bcl2 A113G”), Bcl-2 mutated on R129L (also named “Bcl2 R129L”), Bcl-2 mutated on V156D (also named “Bcl2 V156D”) were cloned into pcLV-CMV-DEST-IRES-TagRFP. Lentiviral particles (1×10^6) were mixed with Polybrene at 8 μg/ml and transduced by spinoculation for 1 h at 32° C. and incubated overnight. After 8 days, TagRFP positive-cells were sorted by FACS. BCL2 expression was monitored by immunoblotting using anti-Flag and anti-BCL2 antibodies. Cells were seeded into 96-wells plates and treated with 1:3.16 serial dilution of compounds (9 different concentrations). Cell viability was assessed using CellTiterGlo reagent following treatment for 72 h. Results were normalized to the viability of cells without compounds (control wells). The C50 values were calculated using nonlinear regression algorithms in XCell software.

KMS12PE Bcl2 A113G = assay: In vitro cytotoxicity CellTiterGlo 72 h, KMS12PE Bcl2 A113G; type: cell-based; details: Homo sapiens, KMS-12-PE, read-out: C50 nM, KMS12PE Bcl2 A113G
Protocol: as §3

KMS12PE Bcl2 D103V = assay: In vitro cytotoxicity CellTiterGlo 72 h, KMS12PE Bcl2 D103V; type: cell-based; details: Homo sapiens, KMS-12-PE, read-out: C50 nM, KMS12PE Bcl2 D103V
Protocol: as §3

KMS12PE = assay: In vitro cytotoxicity CellTiterGlo 72 h, KMS12PE; type: cell-based; details: Homo sapiens, KMS-12-PE, read-out: C50 nM, KMS12PE
Protocol: as §3

KMS12PE Bcl2 D103Y = assay: In vitro cytotoxicity CellTiterGlo 72 h, KMS12PE Bcl2 D103Y; type: cell-based; details: Homo sapiens, KMS-12-PE, read-out: C50 nM, KMS12PE Bcl2 D103Y
Protocol: as §3

KMS12PE Bcl2 WT = assay: In vitro cytotoxicity CellTiterGlo 72 h, KMS12PE Bcl2 WT; type: cell-based; details: Homo sapiens, KMS-12-PE, read-out: C50 nM, KMS12PE Bcl2 WT
Protocol: as §3

KMS12PE Bcl2 G101V = assay: In vitro cytotoxicity CellTiterGlo 72 h, KMS12PE Bcl2 G101V; type: cell-based; details: Homo sapiens, KMS-12-PE, read-out: C50 nM, KMS12PE Bcl2 G101V
Protocol: as §3

KMS12PE Bcl2 R129L = assay: In vitro cytotoxicity CellTiterGlo 72 h, KMS12PE Bcl2 R129L; type: cell-based; details: Homo sapiens, KMS-12-PE, read-out: C50 nM, KMS12PE Bcl2 R129L
Protocol: as §3

KMS12PE Bcl2 V156D = assay: In vitro cytotoxicity CellTiterGlo 72 h, KMS12PE Bcl2 V156D; type: cell-based; details: Homo sapiens, KMS-12-PE, read-out: C50 nM, KMS12PE Bcl2 V156D
Protocol: as §3

KMS12PE Bcl2 F104I = assay: In vitro cytotoxicity CellTiterGlo 72 h, KMS12PE Bcl2 F104I; type: cell-based; details: Homo sapiens, KMS-12-PE, read-out: C50 nM, KMS12PE Bcl2 F104I
Protocol: as §3

KMS12PE Bcl2 F104L = assay: In vitro cytotoxicity CellTiterGlo 72 h, KMS12PE Bcl2 F104L; type: cell-based; details: Homo sapiens, KMS-12-PE, read-out: C50 nM, KMS12PE Bcl2 F104L
Protocol: as §3

KMS12PE Bcl2 D111A = assay: In vitro cytotoxicity CellTiterGlo 72 h, KMS12PE Bcl2 D111A; type: cell-based; details: Homo sapiens, KMS-12-PE, read-out: C50 nM, KMS12PE Bcl2 D111A
Protocol: as §3

Structure (SMILES)	Ki (BCL2 D103Y) [nM]	Ki (BCLXL WT) [nM]	TR_FRET EKI BCLxL/WT selectivty ratio (BCLXL WT)	Ratio (G101V/WT) (KMS-12-PE Bcl-2 G101V)	IC50 (CYP3A4) [nM]	Ki (BCL2 G101V [1]) [nM]	TR_FRET EKI G101V/WT selectivty ratio (BCL2 G101V [2])	Ki (BCL2 WT) [nM]	IC50 (KMS-12-PE Bcl-2 G101V; Homo sapiens, KMS-12-PE) [µM]	IC50 (KMS-12-PE Bcl-2 WT; Homo sapiens, KMS-12-PE) [µM]	further results
Cc1c(N(C(=O)c2cc(-c3cc4c(cc3C(=O)N3Cc5ccccc5C[C@H]3CN3CCCCC3)CN(C(=O)Cc3ccc(OCCN5CCOC(C)C5)cc3F)CC4)n(C)c2C)c2ccc(O)cc2)cc(C#N)n1C (single isomer, unassigned) [Example 109, N-(5-cyano-1,2-dimethyl-1H-pyrrol-3-yl)-5-[2-(2-{2-fluoro-4-[2-((2R or S)-2-methylmorpholin-4-yl)ethoxy]phenyl}acetyl)-7-[(3S)-3-[(piperidin-1-yl)methyl]-1,2,3,4-tetrahydroisoquinoline-2-carbonyl]-1,2,3,4-tetrahydroisoquinolin-6-yl]-N-(4-hydroxyphenyl)-1,2-dimethyl-1H-pyrrole-3-carboxamide]	0.15	3.9	90.7	4.38	> 5000	0.2	5.5	0.04			IC50 (KMS-12-PE Bcl-2 G101V): 0.022 µM; IC50 (KMS-12-PE Bcl-2 WT): 0.0048 µM; Ki (BCL2 D111A): 0.12 nM; Ki (BCL2 F104I): 0.25 nM
CC1(C)CCC(CN2CCN(c3ccc(C(=O)NS(=O)(=O)c4ccc(NCC5CCOCC5)c([N+](=O)[O-])c4)c(Oc4cnc5[nH]ccc5c4)c3)CC2)=C(c2ccc(Cl)cc2)C1 [ABT199, Venetoclax, reference compound]											IC50 (KMS12PE Bcl2 D103E): 260 nM; IC50 (KMS12PE Bcl2 A113G): 120 nM; IC50 (KMS12PE Bcl2 D103V): 590 nM; IC50 (KMS12PE): 5.5 nM; IC50 (KMS12PE Bcl2 D103Y): 1140 nM; IC50 (KMS12PE Bcl2 WT): 30.2 nM; IC50 (KMS12PE Bcl2 G101V): 1050 nM; IC50 (KMS12PE Bcl2 R129L): 42.6 nM; IC50 (KMS12PE Bcl2 V156D): 139 nM; IC50 (KMS12PE Bcl2 F104I): 1300 nM; IC50 (KMS12PE Bcl2 F104L): 1420 nM; IC50 (KMS12PE Bcl2 D111A): 22.4 nM
Cc1c(N(C(=O)c2cc(-c3cc4c(cc3C(=O)N3Cc5ccccc5C[C@H]3C)CN(C(=O)c3ccccc3)CC4)n(C)c2C)c2ccc(O)cc2)cc(C#N)n1C [Example 25, 5-{2-benzoyl-7-[(3R)-3-methyl-1,2,3,4-tetrahydroisoquinoline-2-carbonyl]-1,2,3,4-tetrahydroisoquinolin-6-yl}-N-(5-cyano-1,2-dimethyl-1H-pyrrol-3-yl)-N-(4-hydroxyphenyl)-1,2-dimethyl-1H-pyrrole-3-carboxamide]	0.48	3.2	18.8	12.4	12000	1.3	7.6	0.17	0.0778	0.0063	
Cc1c(N(C(=O)c2cc(-c3cc4c(cc3C(=O)N3Cc5ccccc5C[C@H]3CN3CCCC3)CN(C(=O)Cc3ccc(OCCN(C)C5CC5)cc3F)CC4)n(C)c2C)c2ccc(O)cc2)cc(C#N)n1C [Example 101, N-(5-cyano-1,2-dimethylpyrrol-3-yl)-5-{2-[2-(4-{2-[cyclopropyl(methyl)amino]ethoxy}-2-fluorophenyl)acetyl]-7-{[(3S)-3-(pyrrolidin-1-ylmethyl)-3,4-dihydro-1H-isoquinolin-2-yl]carbonyl}-3,4-dihydro-1H-isoquinolin-6-yl}-N-(4-hydroxyphenyl)-1,2-dimethylpyrrole-3-carboxamide]	0.07	1.9	105.6	4.86	> 5000	0.1	4.7	0.02	0.0806	0.0166	
